{"source": "patent US20240141291A1", "about": "“FUNCTIONAL BRAIN REGION-SPECIFIC NEURAL SPHEROIDS AND METHODS OF USE” (THE UNITED STATES OF AMERICA, AS REPRESENTED BY THE …, priority 2021, published 2024)", "format_in_all_cases": "cell-based, human", "key": {"[1]": {"test_system": "PFC-like and VTA-like spheroids", "test": "3D Cell Titer Glo spheroid viability", "settings": "no DAMGO pre-treatment vs chronic DAMGO vs DAMGO withdrawal", "method": "3D Cell Titer Glo: To measure spheroid cell viability across disease models and after compound treatment, the CellTiter-Glo 3D Cell Viability Assay (Promega, cat #G9681) was used according to the manufacturer's instructions. CellTiter-Glo 3D Reagent was thawed overnight at 4° C. and brought to room temperature (RT) for 20-min before use. After the FLIPR assay, 30 μL of CellTiter-Glo 3D Reagent was added to the spheroid plate and was mixed by shaking for 5-min at RT followed by a 25-min incubation period off the shaker at RT (about 25° C.). Luminescence was read using a PHERAstar FSX microplate reader (BMG LabTech) to measure amount of ATP present, indicating metabolically active cells."}, "[2]": {"test_system": "VTA-like spheroids", "test": "FLIPR calcium activity with Cal6 dye, control compounds / DAMGO (Example 3)", "settings": "VTA-like spheroids in Cal6 dye; 10 μM DAMGO; day 21", "method": "(§1) Viruses and dyes: To assess calcium activity, the calcium dye, Cal6 (Molecular Devices), and genetically encoded calcium indicator, GCaMP6f (Addgene, cat #100836-AAV9) were used. Cal6 was used according to manufacturer's instructions and 10 mL of maintenance media was added to each vial. Two hours before activity was recorded, half of the spheroid media was exchanged for media with Cal6. The plates were covered in foil and placed in the incubator at 37° C. during the 2-hour (hr) incubation period. Since all viruses used were adeno-associated viruses (AAV), they were added to the media on day 7 to allow for 2-weeks expression prior to recording or testing. All viruses were added to the media at 2e5 multiplicity of infection (MOI). GCaMP6f infection occurred via an adeno-associated virus serotype 9 (AAV9) expressed under the CAG promoter for expression in both neurons and astrocytes. Designer receptors exclusively activated by designer drugs (DREADDs) viruses were used to stimulate and inhibit neuronal activity within spheroids. Both viruses were retrograde AAVs expressed under the human Synapsin promoter for expression in neurons and fused with an mCherry fluorophore. The DREADDs viruses either inserted the designer receptor hM4D(Gi), an inhibitory G-protein coupled receptor, or hM3D(Gq), a stimulatory G-protein coupled receptor. Clozapine-N-oxide (CNO, Tocris cat #4936) was suspended in dimethyl sulfoxide (DMSO) and used as the designer drug to activate the DREADDs viruses. CNO was tested at 1 and 10 μM, with data reported from the 1 μM concentration.\n(§2) Fluorescent Imaging plate Reader (FLIPR): The FLIPR Penta (Molecular Devices) was used to assess calcium fluorescence across the 384-well plate simultaneously and to observe changes after treatment with compounds. The evening before calcium activity was measured, plates were sealed with parafilm and centrifuged at 1485×g for 2-min to get spheroids to the bottom of the well in a centered position. On the day of recording, the plate used for recording was placed in the read plate position inside of the FLIPR following the 2-hour Cal6 incubation at 37° C. Standard filter sets were used for Cal6 imaging with excitation set at 470-495 and emission at 515-575 nm. Fluorescent image reads were taken every 0.6 seconds for all plates, with exposure time of 0.03 and 50% excitation intensity. Recordings from the initial seven plates consisted of 1000 reads and were 10-min recordings with 2.5 gain, while the final two plates consisted of 500 reads (5-min recordings) with a gain of 2. Baseline recordings were taken across all plates and, if applicable, more recordings were obtained 1-, 30-, 60-, and/or 90-min after compound treatment. In between recordings, plates were wrapped in foil and placed back in the incubator at 37° C.\nDAMGO was reconstituted in water at a 1 mM concentration and diluted in media to 20 µM such that spheroids would be treated with a final concentration of 10 μM after the half media exchange. Two aspects of OUD were modeled, chronic treatment along with opioid withdrawal. […]\n384 Pin Tool: A 384 well pin tool (Rexroth) was used to transfer compounds simultaneously to the spheroid plate. […] Compound transfer via the 384 well pin tool occurred after the baseline recordings with the fluorescent imaging plate reader (FLIPR). […]"}, "[3]": {"test_system": "PFC-like spheroids", "test": "Confocal (Phenix Plus) calcium recordings, opioid use disorder model", "settings": "PFC-like spheroids expressing GCaMP6f; 10 μM DAMGO; day 21", "method": "(§3) Confocal Imaging: The Opera Phenix Plus High-Content Imaging System (Perkin Elmer) spinning disk confocal was used to record calcium activity from spheroids in individual wells. Prior to recording, the stage was pre-warmed to 37° C., and the carbon dioxide was set to 5%. Recordings were obtained both from spheroids expressing GCaMP6f along with those incubated in Cal6 dye. Recordings were captured with a 20× water immersion objective […] from the bottom of the well, and were obtained at a frame rate of 1.6 frames/sec with 480 frames total, making the recordings 5-min. The protocol was set to record well to well such that recordings were automated but taken from one spheroid at a time before recording from subsequent wells. […]\n(§4) For peak detection data obtained from the Phenix Plus confocal microscope, image sequences were stored in and exported from Columbus Image Data Storage and Analysis as single plane TIFFs. […] Prior to peak detection analysis, the T-function, F div F0, in ImageJ was used to obtain calcium signals normalized to background fluorescence. […] The correlation matrix was used to describe how synchronous the calcium activity within a spheroid was, and a synchrony score was measured by calculating the average correlation coefficient across the matrix. […]"}, "[4]": {"test_system": "VTA-like spheroids", "test": "Confocal (Phenix Plus) calcium recordings, opioid use disorder model", "settings": "VTA-like spheroids expressing GCaMP6f; 10 μM DAMGO; day 21", "method": "as §3, §4"}, "[5]": {"test_system": "PFC-like spheroids", "test": "FLIPR calcium activity with Cal6 dye, control compounds / DAMGO / AD compounds (Example 3)", "settings": "10 μM DAMGO; for effect on peak count and peak spacing: recording 30-min later, then naloxone", "method": "as §1, §2\nDAMGO was reconstituted in water at a 1 mM concentration and diluted in media to 20 µM such that spheroids would be treated with a final concentration of 10 μM after the half media exchange. Two aspects of OUD were modeled, chronic treatment along with opioid withdrawal. For spheroids subjected to chronic DAMGO treatment, 20 μM DAMGO in maintenance media was added via half media exchange beginning on day 10, with treatments occurring every other day for 10 days, giving a total of five treatments.\n384 Pin Tool: A 384 well pin tool (Rexroth) was used to transfer compounds simultaneously to the spheroid plate. Prior to compound transfer, the pin tool went through four wash cycles where pins were rinsed with dimethyl sulfoxide (DMSO), followed by methanol, then deionized (DI) water, to ensure the pins were clean. Compound transfer via the 384 well pin tool occurred after the baseline recordings with the fluorescent imaging plate reader (FLIPR). Here, 60 nL of compound suspended in DMSO was transferred to 60 µL of media in each well, diluting the compounds by 1000-fold and giving a final DMSO concentration of 0.1%."}}, "note": "“Also recorded” adds a separate entry of the source."}
{"compound": "C[C@@H](NC(=O)[C@@H](N)Cc1ccc(O)cc1)C(=O)NCC(=O)N(C)[C@@H](Cc1ccccc1)C(=O)NCCO", "note": "[DAMGO, [D-Ala^2, N-MePhe^4, Gly-ol]-enkephalin]", "values": [{"measurement": "spheroid viability (3D CTG)", "setting": "[1]", "result": "spheroid viability was similar"}, {"measurement": "effect of chronic DAMGO / DAMGO withdrawal on baseline peak count, amplitude, width (FLIPR)", "setting": "[2]", "result": "chronic DAMGO treatment increased peak count in VTA-like spheroids; also recorded: unaffected in VTA-like spheroids; also recorded: reduced in VTA-like spheroids"}, {"measurement": "effect of chronic DAMGO / DAMGO withdrawal on baseline peak count, amplitude, width, synchrony (confocal)", "setting": "[3]", "result": "peak count was reduced by chronic DAMGO treatment in PFC-like spheroids; also recorded: synchrony was unaffected in PFC-like spheroids; also recorded: DAMGO withdrawal reduced peak amplitude in VTA-like but not PFC-like spheroids; also recorded: Chronic DAMGO increased peak width in PFC-like but not VTA-like spheroids; also recorded: DAMGO withdrawal did not impact peak width in either spheroid type"}, {"measurement": "effect of chronic DAMGO / DAMGO withdrawal on baseline peak count, amplitude, width, synchrony (confocal)", "setting": "[4]", "result": "increased by DAMGO withdrawal in VTA-like spheroids; also recorded: DAMGO withdrawal reduced peak amplitude in VTA-like but not PFC-like spheroids; also recorded: Chronic DAMGO increased peak width in PFC-like but not VTA-like spheroids; also recorded: DAMGO withdrawal did not impact peak width in either spheroid type; also recorded: DAMGO withdrawal reduced synchrony in VTA-like spheroids"}, {"measurement": "effect on peak count and peak spacing", "setting": "[5]; PFC-like chronic DAMGO-treated spheroids", "result": "chronic DAMGO-treated spheroids treated with either DMSO or DAMGO showed significant reductions in peak count"}, {"measurement": "effect on peak count and peak spacing", "setting": "[5]; PFC-like control spheroids", "result": "significant reduction in peak count was observed in control spheroids acutely treated with DAMGO; also recorded: acute DAMGO treatment in control spheroids increased peak spacing"}, {"measurement": "effect of chronic DAMGO / DAMGO withdrawal on baseline peak count, amplitude, width (FLIPR)", "setting": "[5]; PFC-like spheroids in Cal6 dye, day 21", "result": "peak count was reduced by chronic DAMGO in PFC-like spheroids; also recorded: Peak amplitude was reduced by DAMGO withdrawal in PFC-like spheroids; also recorded: peak width was increased by chronic DAMGO in PFC-like spheroids"}]}
